Measured values reported in patent US7700584B2 (Hangzhou Minsheng Pharmaceuticals Co., Ltd., priority 2004, dated 2010).
Where a name gives a salt, the structure may show the parent alone. Read-outs that look alike come from different tables or passages of the source.

Tests used:
[1] = test system: U-937 human histocytic lymphoma; assay: In vitro inhibition rate to tumor cells (MTT), U-937; assay type: cell-based; details: for inhibition at 50 µg/mL: Homo sapiens, U-937, 50 μg/ml, read-out: inhibition rate, Results (%) U-937; for inhibition rate, Results (%) U-937: 50 μg/ml, hydrochloride
[2] = test system: Bel-7402 human hepatic carcinoma; assay: In vitro inhibition rate to tumor cells (MTT), Bel-7402; assay type: cell-based; details: for inhibition at 50 µg/mL: Homo sapiens, Bel-7402, 50 μg/ml, read-out: inhibition rate, Results (%) Bel-7402; for inhibition rate, Results (%) Bel-7402: 50 μg/ml, hydrochloride
[3] = test system: MCF-7 human mammary adenocarcinoma; assay: In vitro inhibition rate to tumor cells (MTT), MCF-7; assay type: cell-based; details: for inhibition at 50 µg/mL: Homo sapiens, MCF7, 50 μg/ml, read-out: inhibition rate, Results (%) MCF-7; for inhibition rate, Results (%) MCF-7: 50 μg/ml, hydrochloride
[4] = test system: Hela human cervical carcinoma; assay: In vitro inhibition rate to tumor cells (MTT), Hela; assay type: cell-based; details: 50 μg/ml; for inhibition at 50 µg/mL: Homo sapiens, HeLa, read-out: inhibition rate, Results (%) Hela; for inhibition rate, Results (%) Hela: hydrochloride
[5] = test system: Hela human cervical carcinoma; assay: In vitro anti-tumor IC50 (MTT), Hela; assay type: cell-based; details: Table 4
[6] = test system: mouse grafted uterine cervix cancer U14; assay: Activity against mouse grafted uterine cervix cancer U14; assay type: in vivo, Kunming mice; details: for Tumor weight: X ± SD, n = 10; for inhibitory effect against mouse grafted uterine cervix cancer U14 (in words): all the three concentrations, i.v., female mice
[7] = test system: eight selected tumor cell lines; assay: In vitro anti-tumor IC50, summary over the selected tumor cell lines; assay type: cell-based
Method: (1) Single cell suspension was seeded into 96-well plates (the cells was diluted in the PRMI-1640 minimum medium to 3×10^4 cells/ml, […] diluted cells/well). […] The experiments were performed in quadruplicate.
(2) The medium was removed. Solutions of the anti-tumor agents (50 compounds) were prepared in a freshly prepared medium at serial concentrations. […] of the solution was added into each well. Incubation was continued for 48 hours.
(3) 20 ug of 2 mg/ml MTT was added into each well, and incubated for 4 hours.
(4) The medium was removed from the well. The microplates were swiftly turned down to throw-off the medium. […] of DMSO was added into each well, and vortexed at room temperature for 10 minutes.
(5) OD value (λ=570 nm) was measured with an Enzyme-Linked Detector.
(6) The graph of cell vitality was plotted, and IC50 was calculated.

[8] = test system: MDCK (dog kidney) cells; assay: Toxicity TC50 of the samples in MDCK cells (influenza screening); details: concentration of 50% toxicity
[9] = test system: Hepatitis B virus (HBV); assay type: cell-based
[10] = test system: HepG2 cells; assay: Cell status of HepG2 cells treated with sample (HBV screening); assay type: cell-based; details: 200 μg/ml, HepG2, four days after infection
[11] = U14, first experiment, 10 mg/kg
[12] = U14, first experiment, 20 mg/kg
[13] = U14, first experiment, 40 mg/kg
[14] = U14, second experiment, 10 mg/kg
[15] = U14, second experiment, 20 mg/kg
[16] = U14, second experiment, 40 mg/kg
[17] = U14, third experiment, 10 mg/kg
[18] = U14, third experiment, 20 mg/kg
[19] = U14, third experiment, 40 mg/kg

SMILES: CC(C)C1CC23OC1(O)CC(=CN1CCNCC1)C2CCC3C (centres unmarked) [Compound 8, Curcumol piperazine hydrochloride]
- inhibition at 50 µg/mL ([1]; Table 1): 90.3%
- inhibition at 50 µg/mL ([1]; Table 2 (repeated screening)): 91.3%
- inhibition at 50 µg/mL ([1]; Table 3 (repeated screening)): 94.4%
- inhibition at 50 µg/mL ([2]; Table 1): 54.3%
- inhibition at 50 µg/mL ([2]; Table 2 (repeated screening)): 50.5%
- inhibition at 50 µg/mL ([2]; Table 3 (repeated screening)): 54.9%
- inhibition at 50 µg/mL ([3]; Table 1): 89.1%
- inhibition at 50 µg/mL ([3]; Table 2 (repeated screening)): 85.2%
- inhibition at 50 µg/mL ([3]; Table 3 (repeated screening)): 86.2%
- inhibition at 50 µg/mL ([4]; Table 1): 91.9%
- inhibition at 50 µg/mL ([4]; Table 2 (repeated screening)): 92%
- inhibition at 50 µg/mL ([4]; Table 3 (repeated screening)): 91.5%
- IC50 ([5]; Homo sapiens, HeLa, read-out: IC50 (ug/ml) against tumor cell lines, Hela): 0.59 µg/mL
- Inhibition rate (%) [6, 11]: 35.6%
- Tumor weight [6, 11]: 2.26 ± 0.33 g
- Inhibition rate (%) [6, 12]: 54.4%
- Tumor weight [6, 12]: 1.60 ± 0.39 g
- Inhibition rate (%) [6, 13]: 67.2%
- Tumor weight [6, 13]: 1.15 ± 0.36 g
- Inhibition rate (%) [6, 14]: 38.8%
- Tumor weight [6, 14]: 2.08 ± 0.33 g
- Inhibition rate (%) [6, 15]: 55.6%
- Tumor weight [6, 15]: 1.51 ± 0.39 g
- Inhibition rate (%) [6, 16]: 64.7%
- Tumor weight [6, 16]: 1.20 ± 0.36 g
- Inhibition rate (%) [6, 17]: 40.1%
- Tumor weight [6, 17]: 2.14 ± 0.33 g
- Inhibition rate (%) [6, 18]: 54.4%
- Tumor weight [6, 18]: 1.65 ± 0.39 g
- Inhibition rate (%) [6, 19]: 65.5%
- Tumor weight [6, 19]: 1.25 ± 0.36 g
- inhibitory effect against mouse grafted uterine cervix cancer U14 (in words) [6]: good inhibitory effect
- inhibition rate against mouse grafted uterine cervix cancer U14 ([6]; concentration above 40 mg/kg): above 60%
- Average weight (g)-after administration ([6]; mouse, in vivo, 10 mg/kg): 21.5 g
- Average weight (g)-after administration ([6]; mouse, in vivo, 20 mg/kg): 21.9 g
- Average weight(g)-after administration ([6]; mouse, in vivo, 20 mg/kg): 20.9 g
- Average weight (g)-after administration ([6]; mouse, in vivo, 40 mg/kg): 21.3 g
- activity to Hela, U-937 and HL-60 cell lines (in words) ([7]; Hela and U-937, also U-937 and HL-60 cell lines): excellent activity
- TC50 [8]: 192.45 µg/mL

SMILES: CC(C)C1CC23OC1(O)C/C(=C\Nc1ccc(O)cc1)C2CCC3C (centres unmarked) [Compound 6, Curcumol p-hydroxy aniline hydrochloride]
- inhibition rate, Results (%) U-937 ([1]; Table 1): 90.92%
- inhibition rate, Results (%) U-937 ([1]; Table 2 (repeated screening)): 94.12%
- inhibition at 50 µg/mL ([1]; Table 3 (repeated screening)): 94.1%
- inhibition rate, Results (%) Bel-7402 ([2]; Table 1): 81.84%
- inhibition rate, Results (%) Bel-7402 ([2]; Table 2 (repeated screening)): 81.84%
- inhibition at 50 µg/mL ([2]; Table 3 (repeated screening)): 83.6%
- inhibition rate, Results (%) MCF-7 ([3]; Table 1): 91.89%
- inhibition rate, Results (%) MCF-7 ([3]; Table 2 (repeated screening)): 91.89%
- inhibition at 50 µg/mL ([3]; Table 3 (repeated screening)): 94.1%
- inhibition rate, Results (%) Hela ([4]; Table 1): 95.26%
- inhibition rate, Results (%) Hela ([4]; Table 2 (repeated screening)): 95.26%
- inhibition at 50 µg/mL ([4]; Table 3 (repeated screening)): 92.3%
- IC50 (ug/ml) against tumor cell lines, Hela ([5]; hydrochloride): 0.35 µg/mL
- Inhibition rate (%) [6, 11]: 37.3%
- Tumor weight [6, 11]: 2.2 ± 0.37 g
- Inhibition rate (%) [6, 12]: 65.0%
- Tumor weight [6, 12]: 1.23 ± 0.29 g
- Inhibition rate (%) [6, 13]: 72.6%
- Tumor weight [6, 13]: 0.96 ± 0.31 g
- Inhibition rate (%) [6, 14]: 32.3%
- Tumor weight [6, 14]: 2.3 ± 0.37 g
- Inhibition rate (%) [6, 15]: 64.7%
- Tumor weight [6, 15]: 1.20 ± 0.29 g
- Inhibition rate (%) [6, 16]: 73.5%
- Tumor weight [6, 16]: 0.90 ± 0.31 g
- Inhibition rate (%) [6, 17]: 35.9%
- Tumor weight [6, 17]: 2.32 ± 0.37 g
- Inhibition rate (%) [6, 18]: 63.5%
- Tumor weight [6, 18]: 1.32 ± 0.29 g
- Inhibition rate (%) [6, 19]: 72.1%
- Tumor weight [6, 19]: 1.01 ± 0.31 g
- inhibitory effect against mouse grafted uterine cervix cancer U14 (in words) [6]: good inhibitory effect
- Average weight (g)-after administration ([6]; mouse, in vivo, 10 mg/kg): 22.1 g
- Average weight (g)-after administration ([6]; mouse, in vivo, 20 mg/kg): 21.6 g
- Average weight (g)-after administration ([6]; mouse, in vivo, 40 mg/kg): 21.6 g
- (Value of the positive control - Measured Value) Value of the positive control × 100% ([9]; 200 μg/ml, decrease of HBeAg relative to positive control): 93.43%
- OD450 of HBeAg ([9]; 200 μg/ml, supernatant four days after infection, positive control 1.917, negative 0.057): 0.126
- activity against HBV (in words) ([9]; primary screening, HBV e antigen, HepG2, 13 samples): had the activity against HBV
- inhibitory effect to all the eight selected tumor cell lines (in words) ([7]; all eight cell lines): strong inhibitory effect
- Cell status [10]: Normal
- TC50 [8]: 192.45 µg/mL
